Assay results as given in patent publication US8227613B2, “Heteroaryl carboxamide derivatives” (Hoffmann-La Roche Inc., priority 2008, dated 2012).

What follows are molecules tested against T1, human chemokine receptor 2 isoform B (CCR2B) (Homo sapiens, UniProt P41597) (assay: Calcium mobilization assay (FLIPR, MCP-1 stimulated CHOK1-CCR2B-A5 cells)). Details: 20 nM MCP-1, antagonist activity, read-out: IC50 (inhibitor concentration required for 50% inhibition of specific calcium increases).
T1 construct: host or cells: CHO-K1 (CHOK1-CCR2B-A5)
T1 sequence (P41597 1-360 isoform P41597-2): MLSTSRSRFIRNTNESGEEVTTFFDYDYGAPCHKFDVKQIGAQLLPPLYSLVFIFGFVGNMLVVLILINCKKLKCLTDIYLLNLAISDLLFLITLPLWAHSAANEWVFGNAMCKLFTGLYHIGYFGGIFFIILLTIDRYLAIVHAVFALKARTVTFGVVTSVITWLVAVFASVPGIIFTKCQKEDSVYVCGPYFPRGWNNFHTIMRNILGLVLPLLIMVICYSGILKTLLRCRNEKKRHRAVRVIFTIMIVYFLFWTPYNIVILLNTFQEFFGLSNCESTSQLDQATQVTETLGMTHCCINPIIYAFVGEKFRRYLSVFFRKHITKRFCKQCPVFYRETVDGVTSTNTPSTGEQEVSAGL
Assay type: cell-based
Method: Calcium Mobilization Assay
CHOK1-CCR2B-A5 cells (from Euroscreen) stably overexpressing the human chemokine receptor 2 isoform B were cultured in Nutrient Hams F12 medium supplemented with 5% FBS, 100 U/ml penicillin, 100 μg/ml streptomycin, 400 μg/ml G418 and 5 μg/ml puromycin.
For the assay cells were grown overnight in 384-well black clear flat bottom polystyrene plates (Costar) at 37° C. at 5% CO2. After washing with DMEM, 20 mM Hepes, 2.5 mM probenecid, 0.1% BSA (DMEM assay buffer) cells were loaded with 4 μM Fluo-4 in the same DMEM assay buffer for 2 hours at 30° C. Excess dye was removed and cells were washed with DMEM assay buffer. 384-well compound plates were prepared with DMEM assay buffer/0.5% DMSO with or without various concentrations of test compounds. Usually compounds were tested for agonist and antagonist activity.
Test compounds were added to the assay plate and agonist activity was monitored as fluorescence for 80 seconds with a FLIPR (488 nm excitation; 510-570 nm emission; Molecular Devices). After 20-30 min. of incubation at 30° C., 20 nM MCP-1 (R&D; Roche) was added and fluorescence was monitored again for 80 seconds. Increases in intracellular calcium are reported as maximum fluorescence after agonist exposure minus basal fluorescence before exposure. Antagonist activity is indicated as inhibitor concentration required for 50% inhibition of specific calcium increases.

IC50 [µM] | Structure (SMILES)
0.018 | Cc1cc(-c2cccc(C(F)(F)F)c2)cnc1C(=O)N1CCC(N2CCCC2)CC1 [Example 1, [3-Methyl-5-(3-trifluoromethyl-phenyl)-pyridin-2-yl]-(4-pyrrolidin-1-yl-piperidin-1-yl)-methanone]
0.023 | Cc1cc(-c2cccc(C(F)(F)F)c2)c[n+]([O-])c1C(=O)N1CCC(N2CCCC2)CC1 [Example 2, [3-Methyl-1-oxy-5-(3-trifluoromethyl-phenyl)-pyridin-2-yl]-(4-pyrrolidin-1-yl-piperidin-1-yl)-methanone]
0.004 | Cc1cc(-c2cccc(C(F)(F)F)c2)c(Cl)nc1C(=O)N1CCC(N2CCCC2)CC1 [Example 3, [6-Chloro-3-methyl-5-(3-trifluoromethyl-phenyl)-pyridin-2-yl]-(4-pyrrolidin-1-yl-piperidin-1-yl)-methanone]
0.021 | Cc1cc(-c2cccc(C(F)(F)F)c2)cnc1C(=O)N1CCC(N2CCC[C@H]2CO)CC1 [Example 5, [4-((S)-2-Hydroxymethyl-pyrrolidin-1-yl)-piperidin-1-yl]-[3-methyl-5-(3-trifluoromethyl-phenyl)-pyridin-2-yl]-methanone]
0.13 | COc1ccc(CNc2nc(C(=O)N3CCC(N4CCCC4)CC3)c(C)cc2-c2cccc(C(F)(F)F)c2)cc1 [Example 6, [6-(4-Methoxy-benzylamino)-3-methyl-5-(3-trifluoromethyl-phenyl)-pyridin-2-yl]-(4-pyrrolidin-1-yl-piperidin-1-yl)-methanone]
0.016 | Cc1cc(-c2cccc(C(F)(F)F)c2)c(N)nc1C(=O)N1CCC(N2CCCC2)CC1 [Example 7, [6-Amino-3-methyl-5-(3-trifluoromethyl-phenyl)-pyridin-2-yl]-(4-pyrrolidin-1-yl-piperidin-1-yl)-methanone]
0.065 | COc1nc(C(=O)N2CCC(N3CCCC3)CC2)c(C)cc1-c1cccc(C(F)(F)F)c1 [Example 8, [6-Methoxy-3-methyl-5-(3-trifluoromethyl-phenyl)-pyridin-2-yl]-(4-pyrrolidin-1-yl-piperidin-1-yl)-methanone]
0.0064 | Cc1cc(-c2cccc(C(F)(F)F)c2)c(O)nc1C(=O)N1CCC(N2CCCC2)CC1 [Example 9, [6-Hydroxy-3-methyl-5-(3-trifluoromethyl-phenyl)-pyridin-2-yl]-(4-pyrrolidin-1-yl-piperidin-1-yl)-methanone; 5-Methyl-6-(4-pyrrolidin-1-yl-piperidine-1-carbonyl)-3-(3-trifluoromethyl-phenyl)-1H-pyridin-2-one (tautomers)]
0.078 | CC(=O)N(C(C)=O)c1nc(C(=O)N2CCC(N3CCCC3)CC2)c(C)cc1-c1cccc(C(F)(F)F)c1 [Example 10, N-Acetyl-N-[5-methyl-6-(4-pyrrolidin-1-yl-piperidine-1-carbonyl)-3-(3-trifluoromethyl-phenyl)-pyridin-2-yl]-acetamide]
0.071 | CC(=O)Nc1nc(C(=O)N2CCC(N3CCCC3)CC2)c(C)cc1-c1cccc(C(F)(F)F)c1 [Example 11, N-[5-Methyl-6-(4-pyrrolidin-1-yl-piperidine-1-carbonyl)-3-(3-trifluoromethyl-phenyl)-pyridin-2-yl]-acetamide]
0.058 | Cc1cc(-c2cccc(C(F)(F)F)c2)n(C)c(=O)c1C(=O)N1CCC(N2CCCC2)CC1 [Example 13, 1,4-Dimethyl-3-(4-pyrrolidin-1-yl-piperidine-1-carbonyl)-6-(3-trifluoromethyl-phenyl)-1H-pyridin-2-one]
0.012 | O=C(c1ncc(-c2cccc(C(F)(F)F)c2)cc1Cl)N1CCC(N2CCCC2)CC1 [Example 14, [3-Chloro-5-(3-trifluoromethyl-phenyl)-pyridin-2-yl]-(4-pyrrolidin-1-yl-piperidin-1-yl)-methanone]
0.25 | O=C(c1ncc(-c2cccc(C(F)(F)F)c2)cc1-c1cccc(C(F)(F)F)c1)N1CCC(N2CCCC2)CC1 [Example 15, [3,5-Bis-(3-trifluoromethyl-phenyl)-pyridin-2-yl]-(4-pyrrolidin-1-yl-piperidin-1-yl)-methanone]
0.0042 | Cc1cc(-c2cccc(C(F)(F)F)c2)c(-c2cccnc2)nc1C(=O)N1CCC(N2CCCC2)CC1 [Example 16, [5-Methyl-3-(3-trifluoromethyl-phenyl)-[2,3′]bipyridinyl-6-yl]-(4-pyrrolidin-1-yl-piperidin-1-yl)-methanone]
0.0087 | Cc1cc(-c2cccc(C(F)(F)F)c2)c(-c2cncnc2)nc1C(=O)N1CCC(N2CCCC2)CC1 [Example 17, [3-Methyl-6-pyrimidin-5-yl-5-(3-trifluoromethyl-phenyl)-pyridin-2-yl]-(4-pyrrolidin-1-yl-piperidin-1-yl)-methanone]
0.064 | Cc1cc(-c2cccc(C(F)(F)F)c2)nc(N)c1C(=O)N1CCC(N2CCCC2)CC1 [Example 19, [2-Amino-4-methyl-6-(3-trifluoromethyl-phenyl)-pyridin-3-yl]-(4-pyrrolidin-1-yl-piperidin-1-yl)-methanone]
0.004 | Cc1cc(-c2cccc(C(F)(F)F)c2)c(-n2cnc(Cl)n2)nc1C(=O)N1CCC(N2CCCC2)CC1 [Example 20, [6-(3-Chloro-[1,2,4]triazol-1-yl)-3-methyl-5-(3-trifluoromethyl-phenyl)-pyridin-2-yl]-(4-pyrrolidin-1-yl-piperidin-1-yl)-methanone]
0.0032 | O=C(c1nc(Cl)c(-c2cccc(C(F)(F)F)c2)cc1Cl)N1CCC(N2CCCC2)CC1 [Example 21, [3,6-Dichloro-5-(3-trifluoromethyl-phenyl)-pyridin-2-yl]-(4-pyrrolidin-1-yl-piperidin-1-yl)-methanone]
0.018 | COc1nc(C(=O)N2CCC(N3CCCC3)CC2)c(Cl)cc1-c1cccc(C(F)(F)F)c1 [Example 22, [3-Chloro-6-methoxy-5-(3-trifluoromethyl-phenyl)-pyridin-2-yl]-(4-pyrrolidin-1-yl-piperidin-1-yl)-methanone]
0.041 | O=C(c1nc(O)c(-c2cccc(C(F)(F)F)c2)cc1Cl)N1CCC(N2CCCC2)CC1 [Example 23, [3-Chloro-6-hydroxy-5-(3-trifluoromethyl-phenyl)-pyridin-2-yl]-(4-pyrrolidin-1-yl-piperidin-1-yl)-methanone; 5-Chloro-6-(4-pyrrolidin-1-yl-piperidine-1-carbonyl)-3-(3-trifluoromethyl-phenyl)-1H-pyridin-2-one (tautomers)]
0.0048 | C#Cc1nc(C(=O)N2CCC(N3CCCC3)CC2)c(C)cc1-c1cccc(C(F)(F)F)c1 [Example 24, [6-Ethynyl-3-methyl-5-(3-trifluoromethyl-phenyl)-pyridin-2-yl]-(4-pyrrolidin-1-yl-piperidin-1-yl)-methanone]
0.0023 | Cc1cc(-c2cccc(C(F)(F)F)c2)c(-n2cncn2)nc1C(=O)N1CCC(N2CCCC2)CC1 [Example 25, [3-Methyl-6-[1,2,4]triazol-1-yl-5-(3-trifluoromethyl-phenyl)-pyridin-2-yl]-(4-pyrrolidin-1-yl-piperidin-1-yl)-methanone]
0.067 | Cc1cc(-c2cccc(C(F)(F)F)c2)c(NCCN)nc1C(=O)N1CCC(N2CCCC2)CC1 [Example 26, [6-(2-Amino-ethylamino)-3-methyl-5-(3-trifluoromethyl-phenyl)-pyridin-2-yl]-(4-pyrrolidin-1-yl-piperidin-1-yl)-methanone]
0.041 | Cc1cc(-c2cccc(C(F)(F)F)c2)c(NCCO)nc1C(=O)N1CCC(N2CCCC2)CC1 [Example 27, [6-(2-Hydroxy-ethylamino)-3-methyl-5-(3-trifluoromethyl-phenyl)-pyridin-2-yl]-(4-pyrrolidin-1-yl-piperidin-1-yl)-methanone]
0.25 | Cc1cc(-c2ccc(Cl)c(Cl)c2)cnc1C(=O)N1CCC(N2CCCC2)CC1 [Example 28, [5-(3,4-Dichloro-phenyl)-3-methyl-pyridin-2-yl]-(4-pyrrolidin-1-yl-piperidin-1-yl)-methanone]
0.054 | Cc1cc(-c2cc(C(F)(F)F)ccc2Cl)cnc1C(=O)N1CCC(N2CCCC2)CC1 [Example 30, [5-(2-Chloro-5-trifluoromethyl-phenyl)-3-methyl-pyridin-2-yl]-(4-pyrrolidin-1-yl-piperidin-1-yl)-methanone]
0.025 | Cc1cc(-c2cc(C(F)(F)F)ccc2F)cnc1C(=O)N1CCC(N2CCCC2)CC1 [Example 31, [5-(2-Fluoro-5-trifluoromethyl-phenyl)-3-methyl-pyridin-2-yl]-(4-pyrrolidin-1-yl-piperidin-1-yl)-methanone]
0.023 | Cc1cc(-c2cccc(C(F)(F)F)c2)c(-c2cnn[nH]2)nc1C(=O)N1CCC(N2CCCC2)CC1 [Example 32, [3-Methyl-6-(1H-[1,2,3]triazol-4-yl)-5-(3-trifluoromethyl-phenyl)-pyridin-2-yl]-(4-pyrrolidin-1-yl-piperidin-1-yl)-methanone]
